Reference: the NIST ThermoML archive (doi:10.1021/je800110r)

Conditions: 323.15 K, Liquid, Vibrating tube method

CCCCCCCCCC [decane]
Conditions	mass density [kg/m3]
19981 kPa	723.9
20414 kPa	724.1
20537 kPa	724.2
20652 kPa	724.2
20695 kPa	724.1
20721 kPa	724.3
20740 kPa	724.4
20766 kPa	724.4
20799 kPa	724.3
20826 kPa	724.5
20842 kPa	724.5
20862 kPa	724.5
20893 kPa	724.5
20916 kPa	724.4
20949 kPa	724.5
20970 kPa	724.6
20990 kPa	724.5
21020 kPa	724.4
21044 kPa	724.5
21064 kPa	724.7
21088 kPa	724.5
21254 kPa	724.7
21289 kPa	724.7
21309 kPa	724.8
21334 kPa	724.7
21558 kPa	724.9
21597 kPa	725
21615 kPa	724.9
21681 kPa	725
21707 kPa	725.1
21732 kPa	725.1
21754 kPa	725.1
21790 kPa	725.1
21819 kPa	725.1
21845 kPa	725.1
21867 kPa	725.2
21896 kPa	725.2
21926 kPa	725.2
21955 kPa	725.2
21989 kPa	725.3
22012 kPa	725.3
22035 kPa	725.2
22072 kPa	725.4
22094 kPa	725.2
22131 kPa	725.4
22154 kPa	725.4
22183 kPa	725.4
22207 kPa	725.4
22236 kPa	725.3
22271 kPa	725.5
22302 kPa	725.5
22328 kPa	725.5
22359 kPa	725.5
22383 kPa	725.5
22410 kPa	725.6
22448 kPa	725.6
22471 kPa	725.6
22498 kPa	725.7
22533 kPa	725.6
22563 kPa	725.7
22583 kPa	725.8
22622 kPa	725.6
22654 kPa	725.8
22682 kPa	725.7
23638 kPa	726.6
23679 kPa	726.7
24027 kPa	726.8
24056 kPa	726.8
24083 kPa	726.8
24123 kPa	726.9
24146 kPa	726.8
24177 kPa	726.9
24209 kPa	727
24240 kPa	726.9
24281 kPa	727
24323 kPa	727
24359 kPa	727
24392 kPa	727
24425 kPa	727
24463 kPa	727
24511 kPa	727.1
24544 kPa	727.1
24568 kPa	727.3
24605 kPa	727.2
24671 kPa	727.3
25856 kPa	728
25903 kPa	728.1
25945 kPa	728.2
25978 kPa	728.2
26015 kPa	728.1
26052 kPa	728.2
26084 kPa	728.3
26113 kPa	728.2
26150 kPa	728.3
26239 kPa	728.3
26279 kPa	728.4
26309 kPa	728.5
26382 kPa	728.5
26425 kPa	728.4
26468 kPa	728.7
26506 kPa	728.5
26540 kPa	728.6
26579 kPa	728.6
26618 kPa	728.6
26657 kPa	728.8
26692 kPa	728.7
27084 kPa	728.9
27120 kPa	729
27152 kPa	729.1
27187 kPa	729.1
27223 kPa	729.1
27259 kPa	729.1
27290 kPa	729.1
27331 kPa	729.1
27727 kPa	729.5
27833 kPa	729.5
28265 kPa	729.7
28432 kPa	729.9
29106 kPa	730.4
29187 kPa	730.5
29218 kPa	730.5
29260 kPa	730.5
29336 kPa	730.6
29452 kPa	730.6
29479 kPa	730.7
29510 kPa	730.7
29547 kPa	730.7
29594 kPa	730.7
31137 kPa	731.8
31166 kPa	731.8
31206 kPa	731.8
32493 kPa	732.8
32550 kPa	732.8
32582 kPa	732.7
32606 kPa	732.8
32634 kPa	732.8
32659 kPa	732.7
